Measurements taken from patent US20040171566A1, “Antisense modulation of p38 mitogen activated protein kinase expression” (priority 1999, published 2004).
e = 2'-O-(2-methoxyethyl) (MOE); d = 2'-deoxy (DNA)

Assays:
mouse p38α mRNA = experiment: Mouse p38α mRNA levels in bEND.3 cells, quantitative real-time PCR; format: cell-based; set-up: % Inhib. mouse p38α: concentration or dose not given beside the values; conditions: bEND.3 cells, mRNA by quantitative real-time PCR, average of two experiments
Source text: (§1) Quantitation of p38α mRNA levels was accomplished by real-time quantitative PCR using the ABI PRISM™ 7600, 7700, or 7900 Sequence Detection System (PE-Applied Biosystems, Foster City, Calif.) according to manufacturer's instructions. This is a closed-tube, non-gel-based, fluorescence detection system which allows high-throughput quantitation of polymerase chain reaction (PCR) products in real-time. As opposed to standard PCR in which amplification products are quantitated after the PCR is completed, products in real-time quantitative PCR are quantitated as they accumulate. This is accomplished by including in the PCR reaction an oligonucleotide probe that anneals specifically between the forward and reverse PCR primers, and contains two fluorescent dyes. A reporter dye (e.g., FAM or JOE, obtained from either PE-Applied Biosystems, Foster City, Calif., Operon Technologies Inc., Alameda, Calif. or Integrated DNA Technologies Inc., Coralville, Iowa) is attached to the 5′ end of the probe and a quencher dye (e.g., TAMRA, obtained from either PE-Applied Biosystems, Foster City, Calif., Operon Technologies Inc., Alameda, Calif. or Integrated DNA Technologies Inc., Coralville, Iowa) is attached to the 3′ end of the probe. When the probe and dyes are intact, reporter dye emission is quenched by the proximity of the 3′ quencher dye. During amplification, annealing of the probe to the target sequence creates a substrate that can be cleaved by the 5′-exonuclease activity of Taq polymerase. […] With each cycle, additional reporter dye molecules are cleaved from their respective probes, and the fluorescence intensity is monitored at regular intervals by laser optics built into the ABI PRISM™ Sequence Detection System. In each assay, a series of parallel reactions containing serial dilutions of mRNA from untreated control samples generates a standard curve that is used to quantitate the percent inhibition after antisense oligonucleotide treatment of test samples.
(§2) Prior to quantitative PCR analysis, primer-probe sets specific to the target gene being measured are evaluated for their ability to be “multiplexed” with a GAPDH amplification reaction. In multiplexing, both the target gene and the internal standard gene GAPDH are amplified concurrently in a single sample. In this analysis, mRNA isolated from untreated cells is serially diluted. Each dilution is amplified in the presence of primer-probe sets specific for GAPDH only, target gene only (“single-plexing”), or both (multiplexing). Following PCR amplification, standard curves of GAPDH and target mRNA signal as a function of dilution are generated from both the single-plexed and multiplexed samples. If both the slope and correlation coefficient of the GAPDH and target signals generated from the multiplexed samples fall within 10% of their corresponding values generated from the single-plexed samples, the primer-probe set specific for that target is deemed multiplexable. Other methods of PCR are also known in the art.
(§3) PCR reagents were obtained from Invitrogen Corporation, (Carlsbad, Calif.). […] The RT reaction was carried out by incubation for 30 minutes at 48° C. Following a 10 minute incubation at 95° C. to activate the PLATINUM® Taq, 40 cycles of a two-step PCR protocol were carried out: 95° C. for 15 seconds (denaturation) followed by 60° C. for 1.5 minutes (annealing/extension).
(§4) Gene target quantities obtained by real time RT-PCR are normalized using either the expression level of GAPDH, a gene whose expression is constant, or by quantifying total RNA using RiboGreen™ (Molecular Probes, Inc. Eugene, Oreg.). GAPDH expression is quantified by real time RT-PCR, by being run simultaneously with the target, multiplexing, or separately. Total RNA is quantified using RiboGreen™ RNA quantification reagent (Molecular Probes, Inc. Eugene, Oreg.). Methods of RNA quantification by RiboGreen™ are taught in Jones, L. J., et al, (Analytical Biochemistry, 1998, 265, 368-374). […]

rat p38α mRNA = experiment: Rat p38α mRNA levels in NR-8383 cells, quantitative real-time PCR; format: cell-based; conditions: 300 nM oligonucleotide with FuGENE 6, 24 hours, mRNA by quantitative real-time PCR, average of two experiments
Source text: as §1, §2, §3, §4

Substance | % Inhib. mouse p38α (mouse p38α mRNA) [%] | % Inhib. rat p38α (rat p38α mRNA) [%]
320134 (antisense AACAAGAGGCACTTGAATGG; sugars from the 5' end e5 d10 e5, all phosphorothioate, methylation of C not given here) [compound 320134] | 85 | 74
320126 (antisense AGGCATGCGCAAGAGCTTGG; sugars from the 5' end e5 d10 e5, all phosphorothioate, methylation of C not given here) [compound 320126] | 90 | 69
320129 (antisense CATTTCTTCTTGGTCAAGGG; sugars from the 5' end e5 d10 e5, all phosphorothioate, methylation of C not given here) [compound 320129] | 69 | 65
320154 (antisense TCATGTTTATAAAGGTGAAA; sugars from the 5' end e5 d10 e5, all phosphorothioate, methylation of C not given here) [compound 320154] | 52 | 50
320135 (antisense ACCCCCTTCCACCATGAAGG; sugars from the 5' end e5 d10 e5, all phosphorothioate, methylation of C not given here) [compound 320135] | 95 | 47
320150 (antisense GGATTCCTACAACATACAAA; sugars from the 5' end e5 d10 e5, all phosphorothioate, methylation of C not given here) [compound 320150] | 82 | 62
320116 (antisense TCAGAAGCTCAGCCCCTGGG; sugars from the 5' end e5 d10 e5, all phosphorothioate, methylation of C not given here) [compound 320116] | 95 | 73
320164 (antisense CTTGGCATCCTGTTAATGAG; sugars from the 5' end e5 d10 e5, all phosphorothioate, methylation of C not given here) [compound 320164] | 80 | 73
101755 (antisense CATCATCAGGGTCGTGGTAC; sugars from the 5' end e5 d10 e5, all phosphorothioate, methylation of C not given here) [compound 101755] | 84 | 74
320165 (antisense TGCCTCATGGCTTGGCATCC; sugars from the 5' end e5 d10 e5, all phosphorothioate, methylation of C not given here) [compound 320165] | 81 | 53
320138 (antisense TAAAGGCAGGGCCACAGGAG; sugars from the 5' end e5 d10 e5, all phosphorothioate, methylation of C not given here) [compound 320138] | 87 | 46
320136 (antisense AGCAGGCAGACTGCCAAGGA; sugars from the 5' end e5 d10 e5, all phosphorothioate, methylation of C not given here) [compound 320136] | 83 | 34
320114 (antisense CTTAAAATGAGCTTCAACTG; sugars from the 5' end e5 d10 e5, all phosphorothioate, methylation of C not given here) [compound 320114] | 71 | 60
320146 (antisense GGCACTGGAGACCTCTGCAC; sugars from the 5' end e5 d10 e5, all phosphorothioate, methylation of C not given here) [compound 320146] | 74 | 57
320157 (antisense CGTCCAACACTGGAATTGGC; sugars from the 5' end e5 d10 e5, all phosphorothioate, methylation of C not given here) [compound 320157] | 96 | 71
320152 (antisense TTTGCCCTTTCTCCCCATCA; sugars from the 5' end e5 d10 e5, all phosphorothioate, methylation of C not given here) [compound 320152] | 93 | 66
320108 (antisense AGATGGGTCACCAGGTACAC; sugars from the 5' end e5 d10 e5, all phosphorothioate, methylation of C not given here) [compound 320108] | 61 | 57
320127 (antisense TGAGCAAAGTAGGCATGCGC; sugars from the 5' end e5 d10 e5, all phosphorothioate, methylation of C not given here) [compound 320127] | 73 | 56
320142 (antisense GAGCCAGTTGGTTCTCTTGG; sugars from the 5' end e5 d10 e5, all phosphorothioate, methylation of C not given here) [compound 320142] | 85 | 53
320104 (antisense TCAAAAGCAGCACACACCGA; sugars from the 5' end e5 d10 e5, all phosphorothioate, methylation of C not given here) [compound 320104] | 82 | 42
320149 (antisense AAGGAGCTCCTGGCTTCAGG; sugars from the 5' end e5 d10 e5, all phosphorothioate, methylation of C not given here) [compound 320149] | 74 | 25
320151 (antisense GAAGGAACCACACTCTCTAA; sugars from the 5' end e5 d10 e5, all phosphorothioate, methylation of C not given here) [compound 320151] | 90 | 47
320143 (antisense AGGCACAAACAGACTGACAG; sugars from the 5' end e5 d10 e5, all phosphorothioate, methylation of C not given here) [compound 320143] | 88 | 54
320107 (antisense TAGGTCCTTTTGGCGTGAAT; sugars from the 5' end e5 d10 e5, all phosphorothioate, methylation of C not given here) [compound 320107] | 84 | 60
320166 (antisense ACTGAATGTAGTTTCTTGCC; sugars from the 5' end e5 d10 e5, all phosphorothioate, methylation of C not given here) [compound 320166] | 53 | 35
320118 (antisense CAGACTCTGAGGAGATTTTC; sugars from the 5' end e5 d10 e5, all phosphorothioate, methylation of C not given here) [compound 320118] | 47 | 69
